According to ChEMBL document CHEMBL5500413, “Discovery of Novel Receptor Tyrosine Kinase-like Orphan Receptor 1 (ROR1) Inhibitors for Cancer Treatment” (J Med Chem, 2024):

Assays:
A549 = test: Antiproliferative activity against human A549 cells harboring high ROR1 expression assessed as inhibition of cell growth incubated for 72 hrs by MTT assay; type: functional, cell-based; conditions: A549, 72 h
MDA-MB-231 = test: Antiproliferative activity against human MDA-MB-231 cells harboring high ROR1 expression assessed as inhibition of cell growth incubated for 72 hrs by MTT assay; type: functional, cell-based; conditions: MDA-MB-231, 72 h
[1] = biological target: Inactive tyrosine-protein kinase transmembrane receptor ROR1 (Homo sapiens, UniProt Q01973); test: Binding affinity to ROR1 kinase domain (453 to 783 residues) (unknown origin) assessed as dissociation constant by SPR analysis
NCI-H1975 = test: Antiproliferative activity against human NCI-H1975 cells harboring high ROR1 expression assessed as inhibition of cell growth incubated for 72 hrs by MTT assay; type: functional, cell-based; conditions: NCI-H1975, 72 h

Chain of Inactive tyrosine-protein kinase transmembrane receptor ROR1 (Q01973 whole entry, the tested form may be a part): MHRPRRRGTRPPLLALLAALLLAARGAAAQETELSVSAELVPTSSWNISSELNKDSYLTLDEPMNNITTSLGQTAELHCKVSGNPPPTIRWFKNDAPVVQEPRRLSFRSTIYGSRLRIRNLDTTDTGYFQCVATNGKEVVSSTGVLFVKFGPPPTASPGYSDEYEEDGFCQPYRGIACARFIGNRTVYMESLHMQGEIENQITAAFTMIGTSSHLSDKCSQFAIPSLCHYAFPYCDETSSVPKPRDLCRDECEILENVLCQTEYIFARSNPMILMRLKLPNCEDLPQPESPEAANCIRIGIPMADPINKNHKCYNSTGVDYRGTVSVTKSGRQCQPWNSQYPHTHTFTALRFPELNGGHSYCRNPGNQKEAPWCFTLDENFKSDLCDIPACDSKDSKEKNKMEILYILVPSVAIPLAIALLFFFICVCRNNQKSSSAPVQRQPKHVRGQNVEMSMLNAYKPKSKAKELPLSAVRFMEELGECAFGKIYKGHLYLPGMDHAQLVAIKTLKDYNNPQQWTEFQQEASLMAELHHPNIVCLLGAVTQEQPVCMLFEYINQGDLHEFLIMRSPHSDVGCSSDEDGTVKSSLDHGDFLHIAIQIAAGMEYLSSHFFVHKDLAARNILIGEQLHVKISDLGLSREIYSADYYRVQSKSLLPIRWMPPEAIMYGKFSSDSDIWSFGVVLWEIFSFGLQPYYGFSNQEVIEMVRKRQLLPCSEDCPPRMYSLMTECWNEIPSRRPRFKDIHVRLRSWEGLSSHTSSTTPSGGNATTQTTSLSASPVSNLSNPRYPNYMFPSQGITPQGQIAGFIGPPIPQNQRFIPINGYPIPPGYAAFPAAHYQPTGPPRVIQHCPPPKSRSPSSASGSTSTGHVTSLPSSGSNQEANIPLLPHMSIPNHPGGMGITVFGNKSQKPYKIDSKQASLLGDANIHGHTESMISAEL

Cc1ccc(C(=O)Nc2cccc(N(C)C)c2)cc1C#Cc1cnc2cccnn12
IC50 (A549): 27.5 µM | IC50 (MDA-MB-231): 31.3 µM | Kd [1]: 8.25 µM | IC50 (NCI-H1975): 66.7 µM
